Values after ≈ are worked out from the molar mass of the structure shown. “Also recorded” adds a separate entry of the source. Like-named read-outs stand apart in the source and are kept apart here. Where a SMILES comes first, the peptide text is derived from it.
Columns and labels:
human erythrocytes = experiment: Hemolysis of human erythrocytes; type: cell-based
Description: Antimicrobial and Hemolytic Assays. Antimicrobial susceptibility testing against Staphylococcus aureus (ATCC 29213), Escherichia coli (ATCC 25922), and Pseudomonas aeruginosa (ATCC 27853) was performed using a modification of the National Committee for Clinical Laboratory Standards microdilution broth assay (22). Mueller-Hinton broth (BBL) was used for diluting the peptide stock solution and for diluting the bacterial inoculum. The inoculum was prepared from mid-logarithmic phase cultures. […] The final concentration of peptide solution ranged-from 0.25 to 256 μg/mL in two-fold dilutions. The final concentration of bacteria in the wells was 5×10^5 CFU/mL. Peptides were tested in duplicate. In addition to the test peptide, three standard peptides and a non-treated growth control were included to validate the assay. The microtiter plates were incubated overnight at 37° C. and the absorbance was measured at 600 nm. […] After incubation at 37° C. for 30 min, the suspension was centrifuged at 10,000×g for 10 min and the absorbance at 400 nm was measured.

[1] = test system: Pseudomonas aeruginosa (ATCC 27853); type: cell-based
[2] = test system: Staphylococcus aureus (ATCC 29213); type: cell-based
[3] = test system: Escherichia coli (ATCC 25922); type: cell-based
[4] = Peptide-induced leakage from calcein-loaded LUV
Description: Peptide-Induced Leakage from Calcein-Loaded LUV. The ability of the peptides to release calcein (MW 623) from LUV of varying lipid composition was compared. LUV were prepared as above, except that-the buffer consisted of 50 mM HEPES, 100 mM NaCl, 0.3 mM EDTA, 80 mM calcein, pH 7.4. Calcein-loaded vesicles were separated from free calcein by size-exclusion chromatography using a Sephadex G-50 column and calcein-free buffer. Calcein leakage was monitored using a Perkin-Elmer LS-500 luminescence spectrometer by measuring the time-dependent increase in fluorescence of calcein (excitation=490 nm, emission=520 nm). LUV containing 8 nmoles of lipid were added to 1.5 mL of buffer in a stirred cuvet at 25° C. An aliquot of peptide was added to achieve the desired lipid-to-peptide ratio (256 to 8). Complete leakage was determined by the addition of 20 μL of 10% Triton X-100. Each value represents at least nine different measurements using at least three different LUV preparations.

[5] = test system: Candida albicans (ATCC 14053)
Description: Antimicrobial and Hemolytic Assays. Antimicrobial susceptibility testing against Staphylococcus aureus (ATCC 29213), Escherichia coli (ATCC 25922), and Pseudomonas aeruginosa (ATCC 27853) was performed using a modification of the National Committee for Clinical Laboratory Standards microdilution broth assay (22). Mueller-Hinton broth (BBL) was used for diluting the peptide stock solution and for diluting the bacterial inoculum. The inoculum was prepared from mid-logarithmic phase cultures. Microtiter plate wells received aliquots-of 100 μL each of the inoculum and peptide dilution. The final concentration of peptide solution ranged-from 0.25 to 256 μg/mL in two-fold dilutions. The final concentration of bacteria in the wells was 5×10^5 CFU/mL. Peptides were tested in duplicate. In addition to the test peptide, three standard peptides and a non-treated growth control were included to validate the assay. The microtiter plates were incubated overnight at 37° C. and the absorbance was measured at 600 nm. […] After incubation at 37° C. for 30 min, the suspension was centrifuged at 10,000×g for 10 min and the absorbance at 400 nm was measured. Complete hemolysis was determined by adding 0.2% Triton X-100 in place of the peptide.
Antimicrobial susceptibility testing against Escherichia coli (ATCC 25922), Staphylococcus aureus (ATCC 29213), Pseudomonas aeruginosa (ATCC 27853), and Candida albicans (ATCC 14053) is performed using a modification of the National Committee for Clinical Laboratory Standards microdilution broth assay. Mueller-Hinton broth (BBL) is used for diluting the peptide stock solution and for diluting the bacterial inoculum. The inoculum is prepared from midlogarithmic phase cultures at an approximate concentration of 10^6 CFU/mL. Microtiter plate wells receive aliquots of 0.1 mL each of the inoculum and peptide dilution. The final concentration of the peptide solution ranges from 0.25 to 256 μg/mL in 2-fold dilutions. The microtiter plates are incubated overnight at 37° C.

microorganisms = conditions: literature (52, 54); E. coli, S. aureus, P. aeruginosa for FKVKFKVKVK; cited from earlier work
[6] = POPC/POPG LUV, all ratios (1:1 to 4:1)

| Compound | % Hemolysis (500 μg/mL) (human erythrocytes; red cells of human, 500) [%] | Minimum Inhibitory Concentration, P. aeruginosa ([1]; ATCC 27853) [µg/mL] | Minimum Inhibitory Concentration, S. aureus ([2]; ATCC 29213) [µg/mL] | Minimum Inhibitory Concentration, E. coli ([3]; ATCC 25922) [µg/mL] | calcein leakage from LUV (in words) ([4]; 4:1 POPE/POPG LUV) | calcein leakage from LUV (in words) ([4]; POPC (PC) LUV) | Minimum Inhibitory Concentration, C. albicans ([5]; ATCC 14053) [µg/mL] | calcein leakage from LUV (in words) [4, 6] | also measured |
| --- | --- | --- | --- | --- | --- | --- | --- | --- | --- |
| CC[C@H](C)[C@H](NC(=O)[C@H](CCCCN)NC(=O)CNC(=O)[C@H](C)NC(=O)[C@@H](NC(=O)[C@H](CCCCN)NC(=O)[C@H](C)NC(=O)[C@@H](NC(=O)[C@H](CCCCN)NC(=O)CNC(=O)[C@H](C)NC(=O)[C@@H](NC(=O)[C@H](CCCCN)NC(=O)[C@H](C)NC(=O)[C@@H](NC(=O)[C@H](CCCCN)NC(=O)CNC(=O)[C@H](C)NC(=O)[C@@H](NC(=O)[C@@H](N)CCCCN)[C@@H](C)CC)[C@@H](C)CC)[C@@H](C)CC)[C@@H](C)CC)[C@@H](C)CC)C(=O)N[C@@H](C)C(N)=O [(KIAGKIA)3-NH2, KIAGKIAKIAGKIAKIAGKIA -NH2, reference compound] (H-KIAGKIAKIAGKIAKIAGKIA-NH2; N-terminus assumed) | 9 | 32 | 8 | 8 | most potent | not very effective | 64 | – | MIC Pseud. aerug ([1]; ATCC 27853): 32 µg/mL (≈ 15.5 µM); MIC Staph. aureus ([2]; ATCC 29213): 8 µg/mL (≈ 3.88 µM); MIC E. coli ([3]; ATCC 25922): 8 µg/mL (≈ 3.88 µM) |
| CC[C@H](C)[C@H](NC(=O)[C@H](CCCCN)NC(=O)[C@H](C)NC(=O)CNC(=O)[C@@H](NC(=O)[C@H](CCCCN)NC(=O)[C@@H](NC(=O)[C@H](CCCCN)NC(=O)[C@H](C)NC(=O)CNC(=O)[C@@H](NC(=O)[C@H](CCCCN)NC(=O)[C@@H](NC(=O)[C@H](CCCCN)NC(=O)[C@H](C)NC(=O)CNC(=O)[C@@H](NC(=O)[C@@H](N)CCCCN)[C@@H](C)CC)[C@@H](C)CC)[C@@H](C)CC)[C@@H](C)CC)[C@@H](C)CC)C(N)=O [(KIGAKI)3-NH2, K I G A K I K I G A K I K I G A K I -NH2] (H-KIGAKIKIGAKIKIGAKI-NH2) | – | – | – | – | most potent | not very effective; also recorded: low lytic activity | – | least potent | % Hemolysis (500 μg/mL) (human erythrocytes; 500 μg/mL peptide, 5% human erythrocytes, 37° C., 30 min): 3%; Minimum Inhibitory Concentration, P. aeruginosa ([1]; Table 2, overnight at 37° C.): 32 µg/mL; MIC Pseud. aerug ([1]; Table 4): 32 µg/mL (≈ 17.3 µM); Minimum Inhibitory Concentration, S. aureus ([2]; Table 2, overnight at 37° C.): 16 µg/mL; MIC Staph. aureus ([2]; Table 4): 8 µg/mL (≈ 4.33 µM); Minimum Inhibitory Concentration, E. coli ([3]; Table 2, overnight at 37° C.): 8 µg/mL; MIC E. coli ([3]; Table 4): 8 µg/mL (≈ 4.33 µM); Minimum Inhibitory Concentration, C. albicans ([5]; Table 2): 64 µg/mL |
| CC[C@H](C)[C@H](NC(=O)[C@H](C)NC(=O)CNC(=O)[C@H](C)NC(=O)[C@H](CCCCN)NC(=O)[C@H](CO)NC(=O)[C@H](C)NC(=O)[C@H](CCSC)NC(=O)CN)C(=O)N[C@@H](C)C(=O)NCC(=O)N[C@@H](CCCCN)C(=O)N[C@H](C(=O)N[C@@H](C)C(=O)N[C@@H](CCCCN)C(=O)N[C@H](C(=O)N[C@@H](C)C(=O)N[C@@H](CC(C)C)C(=O)N[C@@H](CCCCN)C(=O)N[C@@H](C)C(=O)N[C@@H](CC(C)C)C(N)=O)C(C)C)[C@@H](C)CC [PGLa, GMASKAGAIAGKIAKVALKAL -NH2, reference compound] (H-GMASKAGAIAGKIAKVALKAL-NH2; N-terminus assumed) | 1 | 128 | 64 | 32 | quite low | not very effective | 128 | most potent | calcein release from LUV (in words) ([4]; POPG LUV): most potent |
| FKVKFKVKVK (artificial mutant) | – | – | – | – | – | – | – | – | antimicrobial or hemolytic activity as reported in the literature (microorganisms): able to inhibit the growth |
